In ChEMBL document CHEMBL5244248, “A novel long-acting oxyntomodulin analogue eliminates diabetes and obesity in mice” (Eur J Med Chem, 2020):

Assays:
[1] = target: Glucagon receptor (Mus musculus, UniProt Q61606); assay: Agonist activity at mouse GCGR expressed in CHO cells assessed as increase in cAMP accumulation; assay type: cell-based
[2] = target: T1, Glucagon-like peptide 1 receptor (Mus musculus, UniProt O35659); assay: Agonist activity at mouse GLP-1R expressed in CHO cells assessed as increase in cAMP accumulation; assay type: cell-based
T1 sequence (O35659 whole entry): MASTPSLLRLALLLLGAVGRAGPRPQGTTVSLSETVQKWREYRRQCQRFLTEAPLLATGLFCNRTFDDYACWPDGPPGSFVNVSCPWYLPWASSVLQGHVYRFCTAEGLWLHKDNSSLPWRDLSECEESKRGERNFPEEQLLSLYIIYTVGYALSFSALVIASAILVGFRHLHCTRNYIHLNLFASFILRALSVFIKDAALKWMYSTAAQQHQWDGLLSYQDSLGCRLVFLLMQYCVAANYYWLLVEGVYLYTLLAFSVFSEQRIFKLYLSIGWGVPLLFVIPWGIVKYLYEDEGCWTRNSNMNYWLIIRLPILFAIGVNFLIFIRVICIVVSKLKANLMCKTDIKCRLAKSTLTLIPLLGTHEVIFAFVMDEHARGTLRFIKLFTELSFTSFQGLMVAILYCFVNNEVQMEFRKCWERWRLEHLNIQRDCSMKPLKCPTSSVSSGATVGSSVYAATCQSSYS

Chain of Glucagon receptor (Q61606 whole entry): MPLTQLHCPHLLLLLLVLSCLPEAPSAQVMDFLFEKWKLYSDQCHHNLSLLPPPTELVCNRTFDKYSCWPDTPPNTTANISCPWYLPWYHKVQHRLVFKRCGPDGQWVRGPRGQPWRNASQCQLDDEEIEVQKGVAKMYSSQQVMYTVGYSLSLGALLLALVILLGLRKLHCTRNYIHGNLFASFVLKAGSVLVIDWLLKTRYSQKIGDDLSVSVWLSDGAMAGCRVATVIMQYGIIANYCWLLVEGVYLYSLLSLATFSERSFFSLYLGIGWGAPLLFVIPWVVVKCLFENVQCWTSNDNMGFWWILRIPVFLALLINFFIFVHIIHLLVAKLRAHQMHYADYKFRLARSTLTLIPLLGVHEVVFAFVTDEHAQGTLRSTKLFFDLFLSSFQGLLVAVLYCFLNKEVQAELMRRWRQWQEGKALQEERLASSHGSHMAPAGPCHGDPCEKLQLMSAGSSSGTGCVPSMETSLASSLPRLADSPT

CC[C@H](C)[C@H](NC(=O)[C@H](CC(N)=O)NC(=O)[C@H](CC(N)=O)NC(=O)[C@H](CCCNC(=N)N)NC(=O)[C@H](CC(N)=O)NC(=O)[C@H](CCCNC(=N)N)NC(=O)[C@H](CCCCN)NC(=O)[C@@H](NC(=O)[C@H](CC(N)=O)NC(=O)[C@H](CCSC)NC(=O)[C@H](CC(C)C)NC(=O)[C@H](Cc1c[nH]c2ccccc12)NC(=O)[C@H](CCC(N)=O)NC(=O)[C@@H](NC(=O)[C@H](Cc1ccccc1)NC(=O)[C@H](CCC(=O)O)NC(=O)[C@H](CCCCN)NC(=O)[C@H](C)NC(=O)[C@H](CCCNC(=N)N)NC(=O)[C@H](CCCCN)NC(=O)[C@H](CCC(=O)O)NC(=O)[C@H](CC(=O)O)NC(=O)[C@H](CC(C)C)NC(=O)[C@H](Cc1ccc(O)cc1)NC(=O)[C@H](CCCCN)NC(=O)[C@H](CO)NC(=O)[C@H](Cc1ccc(O)cc1)NC(=O)[C@H](CC(=O)O)NC(=O)[C@H](CO)NC(=O)[C@@H](NC(=O)[C@H](Cc1ccccc1)NC(=O)[C@@H](NC(=O)CNC(=O)[C@H](CCC(N)=O)NC(=O)C(C)(C)NC(=O)[C@@H](N)Cc1c[nH]cn1)[C@@H](C)O)[C@@H](C)O)C(C)C)[C@@H](C)O)C(=O)N[C@@H](C)C(N)=O
EC50 [1]: 0.94 nM
EC50 [2]: 0.61 nM

CSCC[C@H](NC(=O)[C@H](CC(C)C)NC(=O)[C@H](Cc1c[nH]c2ccccc12)NC(=O)[C@H](CCC(N)=O)NC(=O)[C@@H](NC(=O)[C@H](Cc1ccccc1)NC(=O)[C@H](CCC(=O)O)NC(=O)[C@H](CCCCN)NC(=O)[C@H](C)NC(=O)[C@H](CCCNC(=N)N)NC(=O)[C@H](CCCCN)NC(=O)[C@H](CCC(=O)O)NC(=O)[C@H](CC(=O)O)NC(=O)[C@H](CC(C)C)NC(=O)[C@H](Cc1ccc(O)cc1)NC(=O)[C@H](CCCCN)NC(=O)[C@H](CO)NC(=O)[C@H](Cc1ccc(O)cc1)NC(=O)[C@H](CC(=O)O)NC(=O)[C@H](CO)NC(=O)[C@@H](NC(=O)[C@H](Cc1ccccc1)NC(=O)[C@@H](NC(=O)CNC(=O)[C@H](CCC(N)=O)NC(=O)C(C)(C)NC(=O)[C@@H](N)Cc1c[nH]cn1)[C@@H](C)O)[C@@H](C)O)C(C)C)C(=O)N[C@@H](CC(N)=O)C(=O)N[C@H](C(=O)NCC(=O)N1CCC[C@H]1C(=O)N[C@@H](CO)C(=O)N[C@@H](CO)C(=O)NCC(=O)N[C@@H](C)C(=O)N1CCC[C@H]1C(=O)N[C@@H](CO)C(=O)N[C@@H](CS)C(N)=O)[C@@H](C)O
EC50 [1]: 0.59 nM
EC50 [2]: 0.4 nM

CSCC[C@H](NC(=O)[C@H](CC(C)C)NC(=O)[C@H](Cc1c[nH]c2ccccc12)NC(=O)[C@H](CCC(N)=O)NC(=O)[C@@H](NC(=O)[C@H](Cc1ccccc1)NC(=O)[C@H](CCC(=O)O)NC(=O)[C@H](CCCCN)NC(=O)[C@H](C)NC(=O)[C@H](CCCNC(=N)N)NC(=O)[C@H](CCCCN)NC(=O)[C@H](CCC(=O)O)NC(=O)[C@H](CC(=O)O)NC(=O)[C@H](CC(C)C)NC(=O)[C@H](Cc1ccc(O)cc1)NC(=O)[C@H](CCCCN)NC(=O)[C@H](CO)NC(=O)[C@H](Cc1ccc(O)cc1)NC(=O)[C@H](CC(=O)O)NC(=O)[C@H](CO)NC(=O)[C@@H](NC(=O)[C@H](Cc1ccccc1)NC(=O)[C@@H](NC(=O)CNC(=O)[C@H](CCC(N)=O)NC(=O)C(C)(C)NC(=O)[C@@H](N)Cc1c[nH]cn1)[C@@H](C)O)[C@@H](C)O)C(C)C)C(=O)N[C@@H](CC(N)=O)C(=O)N[C@H](C(=O)NCC(=O)N1CCC[C@H]1C(=O)N[C@@H](CO)C(=O)N[C@@H](CO)C(=O)NCC(=O)N[C@@H](C)C(=O)N1CCC[C@H]1C(=O)N[C@@H](CO)C(N)=O)[C@@H](C)O
EC50 [1]: 0.53 nM
EC50 [2]: 0.36 nM
